Assay [1] concerns the target T1, Or22a (Drosophila melanogaster, UniProt P81909).
T1 construct: his-tag; made in house; host or cells: baculovirus-infected Sf9 cells
T1 sequence (P81909 1-397): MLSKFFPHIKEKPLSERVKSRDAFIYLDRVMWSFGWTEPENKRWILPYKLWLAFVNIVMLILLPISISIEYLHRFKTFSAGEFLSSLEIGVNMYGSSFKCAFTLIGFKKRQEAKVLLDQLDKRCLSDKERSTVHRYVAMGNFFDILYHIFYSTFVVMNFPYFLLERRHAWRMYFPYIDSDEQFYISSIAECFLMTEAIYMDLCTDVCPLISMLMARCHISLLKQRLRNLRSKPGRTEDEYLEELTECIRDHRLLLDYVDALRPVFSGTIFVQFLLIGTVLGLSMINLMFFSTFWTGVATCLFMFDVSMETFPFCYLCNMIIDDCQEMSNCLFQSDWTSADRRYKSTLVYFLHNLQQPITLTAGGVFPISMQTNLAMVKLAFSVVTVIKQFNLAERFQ
The assay can be described thus: Droplet interface bilayer ion channel recording, Or22a only. The conditions noted are these: DIB, 10 μM ligand, holding potential +/−150, +/−100, +/−50 mV. Format: biochemical. As for the experimental part:
Bilayers were formed between two droplets formed within a PMMA chamber filled with 1 mg/ml DPhPC in undecane and AR20 silicone oil (1:1 ratio). The first step in this process was to deposit a 50 nl droplet onto the stationary silver electrode positioned at the base of the well; this droplet consisted of an aqueous solution containing 300 mM NaCl, 10 mM HEPES (pH 7.4), containing the odorant receptor proteins in proteoliposomes (at a 1:20 dilution from the proteoliposome preparation), […] The second droplet was mounted onto a second silver electrode which was held in the oil and lipid mixture using a YOU-3 manipulator (Narishige, Japan). […] Once the droplets were in contact a bilayer formed spontaneously within 1 minute (as determined by visual assessment and an increase in the bilayer capacitance as measured with a capacitance voltage protocol using the Pico2 amplifier). Insertion of an active channel was determined by a change in current while clamping the voltage at 50 mV. […]
Currents were recorded with a Pico2 or an eONE-HS amplifier (Tecella, USA and Elements, Italy, respectively) with built-in digitizers, operating in gap-free acquisition mode at a sampling frequency of 20 kHz, and using a 0.8 or 1.5 kHz low pass filter. […]
Data were analysed using ANA (Dr Pusch, Genoa), EDR (Elements, Italy) and WinWCP (Dr Dempster, University of Strathclyde). […]

Assay [2] has as its target T2, Or10a (Drosophila melanogaster, UniProt Q9VYZ1).
T2 construct: his-tag; made in house; host or cells: baculovirus-infected Sf9 cells
T2 sequence (Q9VYZ1 1-406): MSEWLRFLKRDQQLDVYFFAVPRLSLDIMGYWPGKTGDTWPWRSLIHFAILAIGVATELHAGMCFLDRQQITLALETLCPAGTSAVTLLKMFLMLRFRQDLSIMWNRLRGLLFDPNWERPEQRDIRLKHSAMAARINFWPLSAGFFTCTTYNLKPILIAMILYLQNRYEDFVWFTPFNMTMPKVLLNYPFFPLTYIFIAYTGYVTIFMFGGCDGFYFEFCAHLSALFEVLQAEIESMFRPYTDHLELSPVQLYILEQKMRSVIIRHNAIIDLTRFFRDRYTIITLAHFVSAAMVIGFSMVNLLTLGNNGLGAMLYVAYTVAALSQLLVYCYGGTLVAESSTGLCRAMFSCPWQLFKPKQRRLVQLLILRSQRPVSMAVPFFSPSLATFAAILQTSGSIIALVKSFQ
The assay can be described thus: GFET sensor, Or10a liposomes. The conditions noted are these: Table 4, GFET. Format: biochemical. The text has this: The GFETs used in this study were fabricated from a predeposited graphene film on 300 nm SiO2 coated Si substrate from ACS Suppliers, USA. The FETs consist of a channel with dimensions of 100 μm width and […]. The key steps involved in fabricating the GFET on a Si/SiO2 substrate is schematically illustrated in FIG. 12. The source and drain electrodes were defined by photolithography and formed by successive deposition of Cr and Au. Both the drain and source electrodes were then encapsulated using AZ1518 photoresist and a channel with dimensions of 100 μm width and 10 μm length was left open to the environment for gating and functionalisation.
The OR liposomes were functionalised onto the graphene surface via a non-covalent route using PBASE as the molecular linker as shown in FIG. 13. The OR liposomes were diluted at 1:10 ratio with 1×PBS (pH7.4). The cleaned GFETs were immersed in 1 mM PBASE solution in methanol for 1 hour. […]
Electrical sensor measurements of OR liposome functionalised GFETs were carried out using top liquid gate morphology as shown in the schematic in FIG. 15 (a). […] The transfer characteristics of the different graphene FETs (FIG. 15 (b) to (g)) were measured at Vds=1 mV while the liquid gate voltage Vlg was swept from −0.5 V to 1 V with an interval of 20 mV. […]

Turning to `CCCCCC(=O)OC` [methyl hexanoate], the ion channel activity result in assay [1] is “No ion channel activity”. As for `COC(=O)c1ccccc1O` [methyl salicylate], in assay [2], the “Detection Range” value is 10^−12 to 10^−8 M and a half-maximal effect (EC50) was put at 0.0156 nM.
